# Reference: ChEMBL document CHEMBL1201862, “PubChem BioAssay data set” (2004)
#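 Dose response: 5 concentrations. Exposure: 48 h. Format: 96-well plates. Endpoint: linear interpolation; highest concentration if not reached. GI50 = concentration required for 50% inhibition of growth.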 Active and inactive are the calls of the source. No stated cut-off is given here; in the data, active = GI50 up to about 1.1 µM and inactive = higher.
# How the values were obtained:
# Assay in all cases: growth of human tumour cells (NCI), 48 h
# Malme-3M = tested on: Malme-3M
# NCI-H226 = tested on: NCI-H226
# OVCAR-8 = tested on: OVCAR-8
# SK-MEL-5 = tested on: SK-MEL-5
# UO-31 = tested on: UO-31
# CAKI-1 = tested on: CAKI-1
# LOX IMVI = tested on: LOX IMVI
# NCI-H460 = tested on: NCI-H460
# K562 = tested on: K562
# SN12C = tested on: SN12C
# SF-295 = tested on: SF-295
# IGROV-1 = tested on: IGROV-1
# SW-620 = tested on: SW-620
# CCRF-CEM = tested on: CCRF-CEM
# SK-MEL-2 = tested on: SK-MEL-2
# HOP-92 = tested on: HOP-92
SMILES,GI50 (Malme-3M),GI50 (NCI-H226),GI50 (OVCAR-8),GI50 (SK-MEL-5),GI50 (UO-31),GI50 (CAKI-1),GI50 (LOX IMVI),GI50 (NCI-H460),GI50 (K562),GI50 (SN12C),GI50 (SF-295),GI50 (IGROV-1),GI50 (SW-620),GI50 (CCRF-CEM),GI50 (SK-MEL-2),GI50 (HOP-92)
Cc1cc(C)nc(NS(=O)(=O)c2ccc(Nc3c4ccccc4nc4c(C(=O)Nc5ccc(S(=O)(=O)N=C(N)N)cc5)ccc(Cl)c34)cc2)n1,33.6 µM (inactive),21.9 µM (inactive),17.5 µM (inactive),98.6 µM (inactive),25.4 µM (inactive),36.1 µM (inactive),19.4 µM (inactive),53.1 µM (inactive),24.2 µM (inactive),29.8 µM (inactive),47.2 µM (inactive),–,–,–,–,–
CC1=NN(C(=O)c2ccc(Cl)cc2)C(=O)/C1=C/c1ccco1,> 100 µM (inactive),–,> 100 µM (inactive),> 100 µM (inactive),> 100 µM (inactive),> 100 µM (inactive),> 100 µM (inactive),> 100 µM (inactive),> 100 µM (inactive),> 100 µM (inactive),> 100 µM (inactive),> 100 µM (inactive),> 100 µM (inactive),> 100 µM (inactive),> 100 µM (inactive),> 100 µM (inactive)
Cc1cc(NS(=O)(=O)c2ccc(NC(=O)c3cccc4c(Nc5ccc(S(=O)(=O)Nc6cc(C)on6)cc5)c5ccccc5nc34)cc2)no1,> 100 µM (inactive),–,70.3 µM (inactive),69.2 µM (inactive),38.7 µM (inactive),70.1 µM (inactive),30.5 µM (inactive),> 100 µM (inactive),36.6 µM (inactive),39.4 µM (inactive),> 100 µM (inactive),27.7 µM (inactive),> 100 µM (inactive),35.6 µM (inactive),30.3 µM (inactive),17.5 µM (inactive)
Cc1cc2c(c3c1c1ccccc1n3C)C(=O)c1ccccc1C2=O,> 100 µM (inactive),–,> 100 µM (inactive),> 100 µM (inactive),> 100 µM (inactive),–,> 100 µM (inactive),> 100 µM (inactive),48 µM (inactive),> 100 µM (inactive),> 100 µM (inactive),45.7 µM (inactive),> 100 µM (inactive),> 100 µM (inactive),> 100 µM (inactive),16.9 µM (inactive)
N#C/C(=C\c1ccccc1)C(NO)Nc1ccccc1 (stereo unspecified),> 100 µM (inactive),> 100 µM (inactive),66.1 µM (inactive),53.6 µM (inactive),68.7 µM (inactive),86.5 µM (inactive),–,> 100 µM (inactive),44.7 µM (inactive),> 100 µM (inactive),> 100 µM (inactive),57.3 µM (inactive),74.8 µM (inactive),31.7 µM (inactive),> 100 µM (inactive),57.3 µM (inactive)
CCCCCCCCCCCCCS(=O)(=O)O,> 100 µM (inactive),> 100 µM (inactive),> 100 µM (inactive),> 100 µM (inactive),> 100 µM (inactive),–,> 100 µM (inactive),> 100 µM (inactive),–,> 100 µM (inactive),> 100 µM (inactive),> 100 µM (inactive),> 100 µM (inactive),> 100 µM (inactive),> 100 µM (inactive),> 100 µM (inactive)
CCCCOC(=O)CNC(=O)OCCCCC#CC#CCCCCOC(=O)NCC(=O)OCCCC,> 100 µM (inactive),> 100 µM (inactive),> 100 µM (inactive),> 100 µM (inactive),> 100 µM (inactive),> 100 µM (inactive),> 100 µM (inactive),> 100 µM (inactive),> 100 µM (inactive),> 100 µM (inactive),> 100 µM (inactive),> 100 µM (inactive),> 100 µM (inactive),> 100 µM (inactive),–,–
CC1C[C@H](OC(N)=O)C(C)CC1=O (stereo partly specified),> 100 µM (inactive),–,> 100 µM (inactive),> 100 µM (inactive),> 100 µM (inactive),> 100 µM (inactive),> 100 µM (inactive),> 100 µM (inactive),> 100 µM (inactive),> 100 µM (inactive),> 100 µM (inactive),> 100 µM (inactive),> 100 µM (inactive),> 100 µM (inactive),> 100 µM (inactive),30.2 µM (inactive)
O=C1[C@@H]2C(c3ccc(Cl)cc3Cl)=NO[C@@H]2C(=O)N1c1ccc(Cc2ccc(N3C(=O)[C@H]4C(c5ccc(Cl)cc5Cl)=NO[C@H]4C3=O)cc2)cc1,84.3 µM (inactive),> 100 µM (inactive),40.7 µM (inactive),52.1 µM (inactive),> 100 µM (inactive),60.4 µM (inactive),47.8 µM (inactive),–,29.3 µM (inactive),54 µM (inactive),74 µM (inactive),70 µM (inactive),71.8 µM (inactive),12.9 µM (inactive),> 100 µM (inactive),17.7 µM (inactive)
CN1CCS(=O)(=O)NC(Cc2ccccc2)C(=O)N2CCCC2C1=O (stereo unspecified),> 100 µM (inactive),> 100 µM (inactive),> 100 µM (inactive),> 100 µM (inactive),> 100 µM (inactive),> 100 µM (inactive),> 100 µM (inactive),–,> 100 µM (inactive),> 100 µM (inactive),> 100 µM (inactive),> 100 µM (inactive),> 100 µM (inactive),> 100 µM (inactive),> 100 µM (inactive),–
CCOP(=O)(OCC)OC1C=CC2CCC1C2 (stereo unspecified),> 100 µM (inactive),> 100 µM (inactive),> 100 µM (inactive),> 100 µM (inactive),> 100 µM (inactive),> 100 µM (inactive),> 100 µM (inactive),> 100 µM (inactive),> 100 µM (inactive),> 100 µM (inactive),> 100 µM (inactive),> 100 µM (inactive),–,> 100 µM (inactive),> 100 µM (inactive),–
S=C(Nc1ccccc1)N1N=C2c3ccccc3CC[C@H]2[C@@H]1c1ccccc1,> 100 µM (inactive),4.23 µM (inactive),10.3 µM (inactive),–,13.2 µM (inactive),–,7.35 µM (inactive),3.64 µM (inactive),0.607 µM (active),37.2 µM (inactive),–,4.54 µM (inactive),2.4 µM (inactive),2.91 µM (inactive),2.35 µM (inactive),–
COC(=O)C(CCC1(C)OCCO1)C(C)=O (stereo unspecified),> 100 µM (inactive),> 100 µM (inactive),> 100 µM (inactive),> 100 µM (inactive),> 100 µM (inactive),–,> 100 µM (inactive),> 100 µM (inactive),> 100 µM (inactive),> 100 µM (inactive),> 100 µM (inactive),> 100 µM (inactive),> 100 µM (inactive),> 100 µM (inactive),> 100 µM (inactive),–
O=C(Nc1ccc(Cl)c(Cl)c1)C(=O)C(C(=O)c1ccccc1-c1ccccc1)C1OC(=O)c2ccccc21 (stereo unspecified),8.55 µM (inactive),3.04 µM (inactive),17.4 µM (inactive),15.1 µM (inactive),15.6 µM (inactive),–,13.5 µM (inactive),19.9 µM (inactive),21.5 µM (inactive),–,17.1 µM (inactive),24.2 µM (inactive),19 µM (inactive),12.1 µM (inactive),11.4 µM (inactive),12.9 µM (inactive)
O=C1C=CC(=CC=C2C=CN(CCCCCCCCCCC(=O)NCCCCCCCCCCCC(=O)O)C=C2)C=C1,> 100 µM (inactive),> 100 µM (inactive),> 100 µM (inactive),> 100 µM (inactive),> 100 µM (inactive),> 100 µM (inactive),> 100 µM (inactive),> 100 µM (inactive),> 100 µM (inactive),> 100 µM (inactive),> 100 µM (inactive),> 100 µM (inactive),> 100 µM (inactive),> 100 µM (inactive),–,> 100 µM (inactive)
COc1cc(CCc2ccc(OC(C)=O)cc2)cc(OC)c1OC,> 100 µM (inactive),> 100 µM (inactive),> 100 µM (inactive),> 100 µM (inactive),73.3 µM (inactive),> 100 µM (inactive),92 µM (inactive),> 100 µM (inactive),63.8 µM (inactive),> 100 µM (inactive),> 100 µM (inactive),> 100 µM (inactive),> 100 µM (inactive),> 100 µM (inactive),–,49 µM (inactive)
CCN(CC)c1ccc(C(=O)c2ccccc2C(=O)O)c(O)c1,> 100 µM (inactive),–,> 100 µM (inactive),> 100 µM (inactive),> 100 µM (inactive),> 100 µM (inactive),> 100 µM (inactive),> 100 µM (inactive),> 100 µM (inactive),> 100 µM (inactive),> 100 µM (inactive),> 100 µM (inactive),> 100 µM (inactive),> 100 µM (inactive),> 100 µM (inactive),> 100 µM (inactive)
C#Cc1cc(CN(CC(=O)OC(C)(C)C)CC(=O)OC(C)(C)C)nc(CN(CC(=O)OC(C)(C)C)CC(=O)OC(C)(C)C)c1,4.17 µM (inactive),0.498 µM (active),5.24 µM (inactive),3.59 µM (inactive),3.71 µM (inactive),10 µM (inactive),2.37 µM (inactive),7.23 µM (inactive),4.6 µM (inactive),6.75 µM (inactive),4.39 µM (inactive),7.66 µM (inactive),4.81 µM (inactive),2.96 µM (inactive),2.28 µM (inactive),–
